Test results reported in US20250019379A1, “NEW CRYSTAL FORM OF COMPOUND, AND PREPARATION METHOD THEREFOR AND USE THEREOF” (E-nitiate Biopharmaceuticals (Hangzhou) Co., Ltd, priority 2021, published 2025).
One block for each compound: values may come before it.

How the values were obtained:
Format in all cases: physicochemical
[1] = Dynamic solubility in biological solvents at 37° C.; settings: 37° C.
Protocol: (1) Preparation method of FaSSIF: a. Weigh 42 mg NaOH, 395 mg NaH2PO4·H2O and 619 mg NaCl in a 100 mL beaker, add 90 mL deionized water to dissolve: b. Adjust the pH to […]; Dilute to 100 mL with deionized water to obtain FaSSIF blank solvent: c. Weigh 224 mg of Simulated Intestinal Fluid (hereinafter referred to as SIF powder), add 50 mL of the above FaSSIF blank solvent, and stir until completely dissolved; use Dilute the FaSSIF blank solvent to 100 mL to prepare the solvent FaSSIF; d. Let it stand at room temperature for 2 hours before use.
(2) Preparation method of FeSSIF: a. Weigh 404 mg NaOH, 865 mg glacial acetic acid and 1189 mg NaCl in a 100 mL beaker, add 90 mL deionized water to dissolve: b. Adjust the pH to 5.0 with 1N NaOH or 1N HCl; Dilute to 100 mL with deionized water to obtain FeSSIF blank solvent; c. Weigh 1120 mg SIF powder and add 50 mL of the above FeSSIF blank solvent, stir until dissolved: dilute to 100 mL with FeSSIF blank solvent to obtain FeSSIF solvent d. Let it stand at room temperature before use to ensure a clear solution.
(3) Preparation method of SGF: a. Weigh 200 mg NaCl in a 100 mL beaker, add 90 mL deionized water to dissolve; b. Adjust the pH to 1.6 with 1N HCl; dilute to 100 mL with deionized water to obtain SGF Blank solvent; c. Weigh 6 mg SIF powder and add 50 mL of the above SGF blank solvent, stir until dissolved: dilute to 100 mL with SGF blank solvent to prepare the solvent SGF: d. Let it stand at room temperature before use to ensure a clear solution.
(100 rpm). Take 1.3 mL of the suspension (or clarified solution) respectively at 1, 4, and 24 hours, and centrifuge the suspension for 5 minutes. The solid obtained is used for crystal form detection (XRPD), and the supernatant/clarified solution is filtered for solubility testing and pH test.
Solubility data of the samples were collected using a high-performance liquid chromatograph equipped with an image diode array detector.

[2] = Influencing factors test (light, high temperature, high humidity); settings: 5000Lx light, 60° C., 90% RH±5% RH; 0, 5, 10, 30 days
Protocol: The stability of the crystalline form of the present invention under accelerated test conditions was determined. […] Stability testing was conducted under the following conditions, and samples were taken on the 0th day, the 5th day, the 10th day and the 30th day. The content, total impurities, and XRPD patterns of the samples were recorded and compared with the initial data.

[3] = Solid state stability (HPLC purity, XRPD); settings: for Purity (%): open
Protocol: Purity testing (via HPLC) and crystal form detection (via XRPD) were performed on starting samples, samples stored for one week, and samples stored for two weeks.

[4] = Thermodynamic analysis experiment (heating, XRPD)
Protocol: Crystalline form H and crystalline form S were heated to appropriate temperatures under N2 protection, and after cooling to room temperature, the XRPD of the solids was measured.

[5] = Crystal form stability test
Protocol: The crystalline form M was stored at a temperature of 25° C. and a humidity of 55% RH for 35 days, and the XRPD of the solid was tested.

Changes in Crystal form ([1]; FaSSIF, 1 h): no change
pH ([1]; FaSSIF, 1 h): 6.45
pH ([1]; FaSSIF, 4 h): 6.40
Changes in Crystal form ([1]; FaSSIF, 24 h): no change
pH ([1]; FaSSIF, 24 h): 6.49
pH ([1]; FeSSIF, 1 h): 4.96
pH ([1]; FeSSIF, 4 h): 4.98
Changes in Crystal form ([1]; FeSSIF, 24 h): no change
pH ([1]; FeSSIF, 24 h): 5.00
Changes in Crystal form ([1]; SGF, 1 h): no change
pH ([1]; SGF, 1 h): 2.60
pH ([1]; SGF, 4 h): 2.98
Changes in Crystal form ([1]; SGF, 24 h): no change
pH ([1]; SGF, 24 h): 2.71
crystal form stability when suspended and stirred ([1]; SGF/FeSSIF/FeSSIF, 24 hours): stable
stability under accelerated test conditions (content, total impurities, XRPD) [2]: better stability
solid-state stability (conclusion) [3]: good solid-state stability
Purity (%) ([3]; 1 week, 25° C./60% RH): 99.80%
Purity (%) ([3]; 1 week, 40° C./75% RH): 99.93%
Purity (%) ([3]; 1 week, 60° C.): 99.91%
Crystal form changes ([3]; 1 week, 25° C./60% RH, 40° C./75% RH, 60° C.): no change
Purity (%) ([3]; 2 week, 25° C./60% RH): 99.87%
Purity (%) ([3]; 2 week, 40° C./75% RH): 99.87%
Purity (%) ([3]; 2 week, 60° C.): 99.92%
Crystal form changes ([3]; 2 week, 25° C./60% RH, 40° C./75% RH, 60° C.): no change
change in the crystalline form (XRPD) ([3]; after one week and two weeks of storage under the selected conditions): no change
change in purity ([3]; after one week and two weeks under the selected conditions): no significant change
Starting sample Purity (%) ([3]; starting sample): 99.87%
SMILES: C[C@@H](O)c1nc2cnc3[nH]ccc3c2n1N1CCC(CC#N)CC1 [Crystalline form Q, (R)-2-(1-(2-(1-hydroxyethyl)imidazo[4,5-d]pyrrolo[2,3-b]pyridine-1(6H)-yl)piperidin-4-yl)acetonitrile]

stability under accelerated test conditions (content, total impurities, XRPD) [2]: better stability
SMILES: C[C@@H](O)c1nc2cnc3[nH]ccc3c2n1N1CCC(CC#N)CC1 [Crystalline form H, (R)-2-(1-(2-(1-hydroxyethyl)imidazo[4,5-d]pyrrolo[2,3-b]pyridine-1(6H)-yl)piperidin-4-yl)acetonitrile]
crystal form after heating (XRPD) ([4]; heated to 162° C. under N2, cooled to room temperature): partially converted into crystalline form A
crystal form after heating (XRPD) ([4]; heated to 210° C. under N2, cooled to room temperature): completely converted into crystalline form A

stability under ambient temperature and humidity [5]: unstable
crystal form after storage (XRPD) ([5]; 25° C., 55% RH, 35 days): transformed into the crystalline form A
SMILES: C[C@@H](O)c1nc2cnc3[nH]ccc3c2n1N1CCC(CC#N)CC1 [Crystalline form M, (R)-2-(1-(2-(1-hydroxyethyl)imidazo[4,5-d]pyrrolo[2,3-b]pyridine-1(6H)-yl)piperidin-4-yl)acetonitrile]

crystal form after heating (XRPD) ([4]; heated to 215° C. under N2, cooled to room temperature): converted into crystalline form A
SMILES: C[C@@H](O)c1nc2cnc3[nH]ccc3c2n1N1CCC(CC#N)CC1 [Crystalline form S, (R)-2-(1-(2-(1-hydroxyethyl)imidazo[4,5-d]pyrrolo[2,3-b]pyridine-1(6H)-yl)piperidin-4-yl)acetonitrile]
